Measurements: patent US20210403485A1, “PYRAZOLOPYRIMIDINE DERIVATIVE AS SELECTIVE TRK INHIBITOR” (SHANDONG LUYE PHARMACEUTICAL CO., LTD., priority 2018, published 2021)

Columns and labels:
Ba/F3 ETV6-NTRK3 cells = test: Efficacy test in animals: subcutaneous xenograft, intragastric administration; assay type: in vivo, nude mice; settings: end of the test
Method: (§1) Cells in the logarithmic growth phase were collected and resuspended in serum-free medium to a cell concentration of 2-4×10^7 cells/mL. An equal volume of matrigel was added to the cell suspension to achieve a final cell concentration of 1-2×10^7 cells/mL. 0.2 mL of tumor cell suspension was subcutaneously inoculated at the scapula of each nude mouse with the inoculation amount of 2-4×10^6 cells/mouse to prepare the animal models.

[1] = system: Ba/F3 ETV6-NTRK3-G623R cells; test: as above; assay type: in vivo, nude mice; settings: for TGI (tumor growth inhibition rate): day of dissection; for Tumor inhibition rate (by tumor weight) / Tumor weight: end of the test
Method: as §1

O=C1NC2(CC2)COc2ncc(F)cc2C2COCCN2c2ccn3ncc1c3n2 (single isomer, unassigned) [WX001B]
Tumor inhibition rate (by tumor weight) (Ba/F3 ETV6-NTRK3 cells; 5 mg/kg bid): 89.51%
Tumor weight (Ba/F3 ETV6-NTRK3 cells; 5 mg/kg bid): 0.18 ± 0.08 g
Tumor inhibition rate (by tumor weight) (Ba/F3 ETV6-NTRK3 cells; 10 mg/kg bid): 93.42%
Tumor weight (Ba/F3 ETV6-NTRK3 cells; 10 mg/kg bid): 0.12 ± 0.10 g
Tumor inhibition rate (by tumor weight) (Ba/F3 ETV6-NTRK3 cells; 20 mg/kg bid): 96.47%
Tumor weight (Ba/F3 ETV6-NTRK3 cells; 20 mg/kg bid): 0.06 ± 0.03 g
Inhibition of growth of subcutaneous xenografts ([1]; 2.5-20 mg/kg): in a dose-dependent manner
Relative tumor proliferation rate T/C ([1]; Day 0, 2.5 mg/kg bid): 100.00%
Tumor volume ([1]; Day 0, 2.5 mg/kg bid): 200.40 ± 33.16 mm^3
Relative tumor proliferation rate T/C ([1]; Day 0, 5 mg/kg bid): 100.00%
Tumor volume ([1]; Day 0, 5 mg/kg bid): 200.35 ± 32.62 mm^3
Relative tumor proliferation rate T/C ([1]; Day 0, 10 mg/kg bid): 100.00%
Tumor volume ([1]; Day 0, 10 mg/kg bid): 199.55 ± 34.92 mm^3
Relative tumor proliferation rate T/C ([1]; Day 0, 20 mg/kg bid): 100.00%
Tumor volume ([1]; Day 0, 20 mg/kg bid): 199.51 ± 34.71 mm^3
Relative tumor proliferation rate T/C ([1]; Day 3, 2.5 mg/kg bid): 64.91%
Tumor volume ([1]; Day 3, 2.5 mg/kg bid): 392.17 ± 91.44 mm^3
Relative tumor proliferation rate T/C ([1]; Day 3, 5 mg/kg bid): 56.84%
Tumor volume ([1]; Day 3, 5 mg/kg bid): 343.40 ± 96.52 mm^3
Relative tumor proliferation rate T/C ([1]; Day 3, 10 mg/kg bid): 35.78%
Tumor volume ([1]; Day 3, 10 mg/kg bid): 216.15 ± 52.64 mm^3
Relative tumor proliferation rate T/C ([1]; Day 3, 20 mg/kg bid): 32.65%
Tumor volume ([1]; Day 3, 20 mg/kg bid): 197.28 ± 52.49 mm^3
Relative tumor proliferation rate T/C ([1]; Day 5, 2.5 mg/kg bid): 42.80%
Tumor volume ([1]; Day 5, 2.5 mg/kg bid): 507.81 ± 127.36 mm^3
Relative tumor proliferation rate T/C ([1]; Day 5, 5 mg/kg bid): 32.50%
Tumor volume ([1]; Day 5, 5 mg/kg bid): 385.61 ± 63.66 mm^3
Relative tumor proliferation rate T/C ([1]; Day 5, 10 mg/kg bid): 19.67%
Tumor volume ([1]; Day 5, 10 mg/kg bid): 233.42 ± 49.88 mm^3
Relative tumor proliferation rate T/C ([1]; Day 5, 20 mg/kg bid): 13.62%
Tumor volume ([1]; Day 5, 20 mg/kg bid): 161.67 ± 45.52 mm^3
Relative tumor proliferation rate T/C ([1]; Day 7, 2.5 mg/kg bid): 36.00%
Tumor volume ([1]; Day 7, 2.5 mg/kg bid): 689.34 ± 174.38 mm^3
Relative tumor proliferation rate T/C ([1]; Day 7, 5 mg/kg bid): 29.86%
Tumor volume ([1]; Day 7, 5 mg/kg bid): 571.74 ± 105.62 mm^3
Relative tumor proliferation rate T/C ([1]; Day 7, 10 mg/kg bid): 15.44%
Tumor volume ([1]; Day 7, 10 mg/kg bid): 295.60 ± 218.67 mm^3
Relative tumor proliferation rate T/C ([1]; Day 7, 20 mg/kg bid): 9.61%
Tumor volume ([1]; Day 7, 20 mg/kg bid): 184.02 ± 76.71 mm^3
Relative tumor proliferation rate T/C ([1]; Day 9, 2.5 mg/kg bid): 34.48%
Tumor volume ([1]; Day 9, 2.5 mg/kg bid): 862.41 ± 275.13 mm^3
Relative tumor proliferation rate T/C ([1]; Day 9, 5 mg/kg bid): 24.33%
Tumor volume ([1]; Day 9, 5 mg/kg bid): 608.56 ± 193.58 mm^3
Relative tumor proliferation rate T/C ([1]; Day 9, 10 mg/kg bid): 11.02%
Tumor volume ([1]; Day 9, 10 mg/kg bid): 275.49 ± 176.66 mm^3
Relative tumor proliferation rate T/C ([1]; Day 9, 20 mg/kg bid): 6.67%
Tumor volume ([1]; Day 9, 20 mg/kg bid): 166.80 ± 119.15 mm^3
Relative tumor proliferation rate T/C ([1]; Day 11, 2.5 mg/kg bid): 31.05%
Tumor volume ([1]; Day 11, 2.5 mg/kg bid): 1079.47 ± 236.62 mm^3
Relative tumor proliferation rate T/C ([1]; Day 11, 5 mg/kg bid): 18.40%
Tumor volume ([1]; Day 11, 5 mg/kg bid): 639.67 ± 102.59 mm^3
Relative tumor proliferation rate T/C ([1]; Day 11, 10 mg/kg bid): 8.91%
Tumor volume ([1]; Day 11, 10 mg/kg bid): 309.67 ± 199.23 mm^3
Relative tumor proliferation rate T/C ([1]; Day 11, 20 mg/kg bid): 4.89%
Tumor volume ([1]; Day 11, 20 mg/kg bid): 169.93 ± 190.60 mm^3
TGI (tumor growth inhibition rate) ([1]; 2.5 mg/kg bid): 68.95%
TGI (tumor growth inhibition rate) ([1]; 5 mg/kg bid): 81.60%
TGI (tumor growth inhibition rate) ([1]; 10 mg/kg bid): 91.09%
TGI (tumor growth inhibition rate) ([1]; 20 mg/kg bid): 95.11%
Tumor inhibition rate (by tumor weight) ([1]; 2.5 mg/kg bid): 68.72%
Tumor weight ([1]; 2.5 mg/kg bid): 0.54 ± 0.24 g
Tumor weight ([1]; 5 mg/kg bid): 0.44 ± 0.13 g
Tumor inhibition rate (by tumor weight) ([1]; 5 mg/kg bid, 5 mg/kg): 74.12%
Tumor inhibition rate (by tumor weight) ([1]; 10 mg/kg bid): 92.90%
Tumor weight ([1]; 10 mg/kg bid): 0.12 ± 0.11 g
Tumor inhibition rate (by tumor weight) ([1]; 20 mg/kg bid): 95.75%
Tumor weight ([1]; 20 mg/kg bid): 0.07 ± 0.06 g
